Assay results published in article PMC4246094, “Exchange Factor EFA6R Requires C-terminal Targeting to the Plasma Membrane to Promote Cytoskeletal Rearrangement through the Activation of ADP-ribosylation Factor 6 (ARF6)” (The Journal of Biological Chemistry, 2014).
pIC50: −log10 of the molar value.

Target: T1, EFA6R (GFP-EFA6R), isoform B (Homo sapiens, UniProt Q9NYI0)
T1 construct: gene PSD3; full-length isoform B, N-terminal GFP tag (pEGFPC2), transiently expressed in COS7 cells, lysate used; endogenous protein runs at 56 kDa
Test: competition pulldown: displacement from biotinylated PI-avidin beads by soluble diC8 lipid, immunoblot densitometry
Settings: concentration blocking 50% of binding to PI 4,5-P2 beads (in the methods PI 3,4-P2 beads); cell lysate, pH 7.4, 150 mM NaCl, 0.5% Nonidet P-40, 4 °C; PH domain; read-out: EC50 (the source's name)

T1 sequence (Q9NYI0 1-513 isoform Q9NYI0-3 limits assumed): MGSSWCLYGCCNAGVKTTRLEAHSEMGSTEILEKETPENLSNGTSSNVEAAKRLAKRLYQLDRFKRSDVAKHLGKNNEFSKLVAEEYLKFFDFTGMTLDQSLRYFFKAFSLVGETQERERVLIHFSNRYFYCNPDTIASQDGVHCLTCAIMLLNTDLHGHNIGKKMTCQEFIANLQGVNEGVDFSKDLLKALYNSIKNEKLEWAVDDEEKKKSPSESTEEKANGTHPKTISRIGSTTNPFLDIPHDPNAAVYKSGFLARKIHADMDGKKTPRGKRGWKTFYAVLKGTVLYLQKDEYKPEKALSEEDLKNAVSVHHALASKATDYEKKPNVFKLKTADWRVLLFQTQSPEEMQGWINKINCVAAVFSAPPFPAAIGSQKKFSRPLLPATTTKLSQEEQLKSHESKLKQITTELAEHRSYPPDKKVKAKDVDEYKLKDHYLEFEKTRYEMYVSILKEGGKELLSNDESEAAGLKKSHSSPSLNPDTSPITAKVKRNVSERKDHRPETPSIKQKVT

| pIC50 | SMILES |
| --- | --- |
| < 5.00 | CCCCCCCC(=O)OC[C@H](COP(=O)(O)O[C@H]1[C@H](O)[C@@H](OP(=O)(O)O)[C@H](OP(=O)(O)O)[C@@H](OP(=O)(O)O)[C@H]1O)OC(=O)CCCCCCC [PI 3,4,5-trisphosphate] |
| < 5.00 | CCCCCCCC(=O)OC[C@H](COP(=O)(O)O[C@H]1[C@H](O)[C@@H](O)[C@H](OP(=O)(O)O)[C@@H](OP(=O)(O)O)[C@H]1O)OC(=O)CCCCCCC [PI 3,4-P2] |
| < 5.00 | CCCCCCCC(=O)OC[C@H](COP(=O)(O)O[C@@H]1[C@H](O)[C@H](OP(=O)(O)O)[C@@H](O)[C@H](O)[C@H]1O)OC(=O)CCCCCCC [PI 3-phosphate] |
| 5.96 | CCCCCCCC(=O)OC[C@H](COP(=O)(O)O[C@@H]1[C@H](O)[C@H](O)[C@@H](OP(=O)(O)O)[C@H](OP(=O)(O)O)[C@H]1O)OC(=O)CCCCCCC [PI 4,5-P2] |
